The values below come from ChEMBL document CHEMBL5120814, “Molecular Networking-Based Screening Led to the Discovery of a Cyclic Heptadepsipeptide from an Endolichenic Xylaria sp” (J Nat Prod, 2022).

Data set [1] deals with HT-29. Kind of data set: Cytotoxicity against human HT-29 cells assessed as inhibition of cell proliferation incubated for 48 hrs by MTT assay. It is filed as functional, cell-based. The note with it: HT-29, 48 h.
Data set [2] has as its system RKO. Description: Cytotoxicity against human RKO cells assessed as inhibition of cell proliferation incubated for 48 hrs by MTT assay. It counts as functional, cell-based. (Formazan colour is commonly taken as a measure of viable cells.)
Data set [3] deals with NCI-H1299. Description: Cytotoxicity against human NCI-H1299 cells assessed as inhibition of cell proliferation incubated for 48 hrs by MTT assay. It counts as functional, cell-based. As to conditions: NCI-H1299, 48 h.
For data set [4], the system named is PC-9. Kind of data set: Cytotoxicity against human PC-9 cells assessed as inhibition of cell proliferation incubated for 48 hrs by MTT assay. It counts as functional, cell-based. As to conditions: PC-9, 48 h.
Data set [5] concerns BT-549. Kind of data set: Cytotoxicity against human BT-549 cells assessed as inhibition of cell proliferation incubated for 48 hrs by MTT assay. It counts as functional, cell-based. The note with it: BT-549, 48 h.
Data set [6] relates to BT-549. Kind of data set: Potency index, ratio of cisplatin IC50 to test compound IC50 for cytotoxicity against human BT-549 cells. It is filed as functional.
The nature of data set [7]: Cytotoxicity against human HMLE cells assessed as inhibition of cell proliferation incubated for 48 hrs by MTT assay. It is filed as toxicity, cell-based.
The nature of data set [8]: Selectivity ratio of IC50 for cytotoxicity against human HMLE cells to IC50 for cytotoxicity against human BT-549 cells. The note with it: HMLE cells and BT-549 cells, read-out: Ratio IC50. It counts as toxicity, cell-based.
Data set [9] relates to BT-549. Kind of data set: Induction of cell cycle arrest in human BT-549 cells assessed as accumulation at G0/G1 phase at 5 uM incubated for 24 hrs by propidium iodide staining based flow cytometry (reference value: 22.97%). It is filed as functional. A general note: A flow cytometer gives signals particle by particle.
Data set [10] relates to BT-549. Kind of data set: Induction of cell cycle arrest in human BT-549 cells assessed as accumulation at S phase at 5 uM incubated for 24 hrs by propidium iodide staining based flow cytometry (reference value: 50.87%). It is filed as functional.
The test system of data set [11] is BT-549. Kind of data set: Induction of cell cycle arrest in human BT-549 cells assessed as accumulation at G2/M phase at 5 uM incubated for 24 hrs by propidium iodide staining based flow cytometry (reference value: 22.59%). It is filed as functional.

A word on the IC50: it is the concentration that gives 50% inhibition. As to `CC[C@H](C)[C@H]1NC(=O)[C@@H](CC(C)C)NC(=O)[C@@H](CC(C)C)N(C)C(=O)[C@@H]2CCCN2C(=O)[C@H](CC(C)C)NC(=O)[C@H](Cc2ccccc2)OC(=O)[C@@H]2CCCN2C1=O`, the IC50 in [1] came out at 2500 nM; in [2] it was 9500 nM; in [3] it was 2500 nM; in [4] it was 2500 nM; in data set [5], 2500 nM. Besides, in data set [6], the “Ratio IC50” value is given as 3.4. Besides, in data set [7], the IC50 at 48 h came out at 7300 nM. For the same compound, in data set [8], the selectivity ratio was 3. For the same compound, the Activity in data set [9] came to 41.84%; in data set [10], 32.49%; in data set [11], 18.34%.
